Common to all, as to experiment: relative viability (nuclei count vs DMSO), 5 days (fraction); higher = more cells survive
Compound in assay [1]: C=CCn1c(=O)c2cnc(Nc3ccc(N4CCN(C)CC4)cc3)nc2n1-c1cccc(C(C)(C)O)n1 [Adavosertib]
The method, boiled down: (§1)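 Vehicle-anchored 1536-well plates of lung cancer cell lines, held overnight at 37 °C, were pinned with five library-drug doses (not always all listed) spaced by √10. No medium change followed over the next 5 days, after which the cells were fixed, permeabilised and Hoechst-stained together and imaged at 4×. Nuclei were counted with MetaXpress, and viability is treated-well nuclei over vehicle-well nuclei, taken as a median across plates. Plates passed with control CV below 25% and at least one doubling.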

Compound in assay [2]: COc1nc(N)nc2c1ncn2[C@@H]1O[C@H](CO)[C@@H](O)[C@@H]1O [Nelarabine]
In outline:
as §1

Compound in assay [3]: C=CCn1c(=O)c2cnc(Nc3ccc(N4CCN(C)CC4)cc3)nc2n1-c1cccc(C(C)(C)O)n1 [Adavosertib] + CC(=O)c1c(C)c2cnc(Nc3ccc(N4CCNCC4)cn3)nc2n(C2CCCC2)c1=O [Palbociclib] (partner 0.5 µM)
In outline:
(§2)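 Relative viability divides the nuclei count in treated wells by that in vehicle wells. Lung cancer cell lines were seeded in 1536-well plates, dosed by pin tool the next day, and fixed and stained after 5 days in one step with final 0.05% Triton X-100, 1% formaldehyde and 1 ug/ml Hoechst. Dosing was a single drug or a fixed anchor-drug dose plus five library-drug doses (not always all listed) in √10 steps, and values are medians of duplicate plates imaged at 4×.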

Compound in assay [4]: COc1nc(N)nc2c1ncn2[C@@H]1O[C@H](CO)[C@@H](O)[C@@H]1O [Nelarabine] + COc1cc2c(Oc3ccc(NC(=O)C4(C(=O)Nc5ccc(F)cc5)CC4)cc3F)ccnc2cc1OCCCN1CCOCC1 [Foretinib] (partner 0.25 µM)
In outline:
as §2

Compound in assay [5]: C=CCn1c(=O)c2cnc(Nc3ccc(N4CCN(C)CC4)cc3)nc2n1-c1cccc(C(C)(C)O)n1 [Adavosertib] + Cc1cc(Nc2cc(N3CCN(C)CC3)nc(Sc3ccc(NC(=O)C4CC4)cc3)n2)n[nH]1 [Tozasertib] (partner 0.1 µM)
The method, boiled down:
as §2

Consider EMC-BAC-2, for which the relative viability in assay [1] (0.03162 µM) came out at 1.02; in assay [1] (0.1 µM) it was 1.08; in assay [1] (0.3162 µM) it was 0.919; in assay [2] (0.01 µM) it was 1.01; in assay [2] (0.03162 µM) it was 1.22; in assay [2] (0.1 µM), 1.08. In addition, the relative viability in assay [2] (0.3162 µM) is 0.968; in assay [2] (1 µM), 1.07; in assay [3] (first compound 0.03162 µM) it was 0.542; in assay [3] (first compound 0.1 µM), 0.516; in assay [3] (first compound 0.3162 µM), 0.487; in assay [4] (first compound 0.01 µM), 1.06. Besides, the relative viability in assay [4] (first compound 0.03162 µM) turned out to be 1; in assay [4] (first compound 0.1 µM), 0.913; in assay [4] (first compound 0.3162 µM) it was 0.975; in assay [4] (first compound 1 µM), 0.963; in assay [5] (first compound 0.01 µM) it was 0.331; in assay [5] (first compound 0.03162 µM), 0.318. For the same cell line, the figures for the relative viability in assay [5] (first compound 0.1 µM) and in assay [5] (first compound 0.3162 µM) were 0.261 and 0.28, respectively.

(Values after the supplement of paper PMC10307832.)
